We go through 5 molecules from patent US20130042333A1, “MARKERS FOR CANCER PROGNOSIS AND THERAPY AND METHODS OF USE” (priority 2011, published 2013).

Assay [1] has as its system SC61 small-cell lung cancer xenograft. Put plainly: Tumor regression-regrowth assay, SC61 xenograft. Type of assay: in vivo, human tumor in immunodeficient mice. To be noted: x1 cycle. An excerpt:
(§1) Tumor xenografts were generated by direct subcutaneous grafting into immunodeficient mice of human tumor surgical samples with informed written consent of the patients and maintained by serial transplantation. […] They are thus clinically relevant tumor models, as opposed to xenografts produced from tumor cell lines that have been obtained by in vitro culture and often passaged for many years (Fiebig, H. H. et al. Eur J Cancer 40, 802-820, 2004; Marangoni E., Vincent-Salomon A., Auger N. et al. Clin Cancer Res. 2007 Jul. 1; 13:3989-98).
Chemotherapeutic drugs were administered by intraperitoneal route according to the following doses and schedules: adriamycin, 2 mg/kg, q3wk (Doxorubicin®, Teva Pharmaceuticals, France) and Cyclophosphamide, 100 mg/kg, q3wk (Endoxan®, Baxter, France). Irinotecan (Campto®, Pfizer Holding France), 50 mg/kg, q4dx4. Etoposide 12 mg/kg, qdx3. Ifosfamide 90 mg/kg, qdx3. bPARP inhibitor (AZD2281, Sequoia Research Products, UK) at 50 mg/kg (ip; qdx14). A second treatment cycle was performed with PARP inhibitor at 50 mg/kg (ip qdx5) during the nodule phase. […] Tumor volume was evaluated by measuring two perpendicular diameters of the tumor, with a calliper, biweekly during the treatment period and once a week during the follow-up period. […] Mice were ethically sacrificed when the tumor volume reached 2000 mm3 Individual tumor growth delays (TGD) is calculated as the time in days required for individual tumors to reach 3- to 5-fold the initial median tumor volume. The tumor growth delay index (TGDI) is calculated as the median growth delay in the treated group divided by the median growth delay in the control group. The percentage ratio between the mean tumor volume of a treated group (T) and the mean tumor volume of the control group (C) is calculated. […]

The subject of assay [2] is HBCx-17 breast tumor xenograft. The experiment in a line: Tumor regression-regrowth assay, HBCx-17 xenograft. The format is in vivo, human tumor in Swiss nude mice. As to conditions: A/C 2/100 or Cap 540 mg/kg, x2 cycles.
Source text: as §1
(§2) Chemotherapeutic drugs were administered by intraperitoneal route according to the following doses and schedules: adriamycin, 2 mg/kg, q3wk (Doxorubicin®, Teva Pharmaceuticals, France) and Cyclophosphamide, 100 mg/kg, q3wk (Endoxan®, Baxter, France). Irinotecan (Campto®, Pfizer Holding France), 50 mg/kg, q4dx4. Etoposide 12 mg/kg, qdx3. Ifosfamide 90 mg/kg, qdx3. bPARP inhibitor (AZD2281, Sequoia Research Products, UK) at 50 mg/kg (ip; qdx14). A second treatment cycle was performed with PARP inhibitor at 50 mg/kg (ip qdx5) during the nodule phase. Other pharmacological inhibitors are tested and administrated at the nodule phase: JAK1/2 Inhibitor (CP-690550) at 15 mg/kg (po qdx14), Epigallocatechin gallate (ECGC) (Sequoia Research Products, UK) at 30 mg/kg (ip qdx28), HDAC inhibitor (Trichostatine A), Retinoic acid at 50 mg/kg (ip qdx28) (Sigma-Aldrich, France). Breast tumor xenograft models were transplanted into 5-week old female Swiss nude mice, as described above, one tumor being transplanted into 5-10 recipients. When tumors reached a volume of 60-250 mm3, mice were individually identified and randomly assigned to the control or treated groups (12 to 20 mice per group). Tumor volume was evaluated by measuring two perpendicular diameters of the tumor, with a calliper, biweekly during the treatment period and once a week during the follow-up period. The formula TV (mm3)=[length (mm)×width (mm)2]/2 was used, where the length and the width were the longest and the shortest diameters of the tumor, respectively. All animals were weighted biweekly during the treatment period and the follow-up period. Mice were ethically sacrificed when the tumor volume reached 2000 mm3 Individual tumor growth delays (TGD) is calculated as the time in days required for individual tumors to reach 3- to 5-fold the initial median tumor volume. The tumor growth delay index (TGDI) is calculated as the median growth delay in the treated group divided by the median growth delay in the control group. The percentage ratio between the mean tumor volume of a treated group (T) and the mean tumor volume of the control group (C) is calculated.
(§3) Tumors were collected from 5 independent mice at different time points: prior to treatment (=controls with volume<200 mm3); post-treatment residual tumors (=nodules with volume<32 mm3 until minimal palpation); recurrent tumors (=regrowth with volume>62.5 mm3) Tumors or nodules were processed for (1) FFPE (formalin-fixed paraffin-embedded) or for (2) snap frozen samples: samples were cut into 3-4 mm pieces (at least 3 fragments) and snap-frozen in liquid nitrogen, then transferred to −80° C. for storage. Samples were allocated for histology, microdissection and RNA analyses.
(§4) Three categories of responders were defined based on the TGDI and T/C values.

The subject of assay [3] is HBCx-39 breast tumor xenograft. Put plainly: Tumor regression-regrowth assay, HBCx-39 xenograft. The format is in vivo, human tumor in Swiss nude mice. As to conditions: Cap 540 mg/kg, x2 cycles.
Source text: as §1, §2, §3, §4

The subject of assay [4] is TC71 colorectal tumor xenograft. The experiment in a line: Tumor regression-regrowth assay, TC71 xenograft. To be noted: x1 cycle, mg/kg: Ox 10, Cap 540, I 50, B 5, Cet 5. Type of assay: in vivo, human tumor in immunodeficient mice.
Source text: as §1, §2, §3, §4

The test system of assay [5] is TC305 colorectal tumor xenograft. Put plainly: Tumor regression-regrowth assay, TC305 xenograft. Type of assay: in vivo, human tumor in immunodeficient mice. As to conditions: x1 cycle, mg/kg: Ox 10, Cap 540, I 50, B 5, Cet 5.
Source text: as §1, §2, §3, §4

Assay [6] concerns HBCx-24 breast tumor xenograft. Put plainly: Tumor regression-regrowth assay, HBCx-24 xenograft. The format is in vivo, human tumor in Swiss nude mice. To be noted: Doc 20 mg/kg, x2 cycles.
Source text: as §1, §2, §3, §4

Assay [7] has as its system IC20DAN (a primary NSCLC tumor xenograft). The experiment in a line: Tumor regression-regrowth assay, IC20DAN xenograft. Type of assay: in vivo, human tumor in immunodeficient mice. As to conditions: Doc 20 mg/kg, x1 cycle.
Source text: as §1, §2, §3, §4

Assay [8] deals with HBCx-6 breast cancer xenograft. The experiment in a line: Tumor regression-regrowth assay, HBCx-6 xenograft. Type of assay: in vivo, human tumor in Swiss nude mice. To be noted: HBCx-6 combination study; A/C 2/100 mg/kg; AZD2281 50 mg/kg i.p.
Source text: as §1
Chemotherapeutic drugs were administered by intraperitoneal route according to the following doses and schedules: adriamycin, 2 mg/kg, q3wk (Doxorubicin®, Teva Pharmaceuticals, France) and Cyclophosphamide, 100 mg/kg, q3wk (Endoxan®, Baxter, France). […] Tumor volume was evaluated by measuring two perpendicular diameters of the tumor, with a calliper, biweekly during the treatment period and once a week during the follow-up period. […] Mice were ethically sacrificed when the tumor volume reached 2000 mm3 Individual tumor growth delays (TGD) is calculated as the time in days required for individual tumors to reach 3- to 5-fold the initial median tumor volume. The tumor growth delay index (TGDI) is calculated as the median growth delay in the treated group divided by the median growth delay in the control group. […]

In assay [9] the test system is ODA14 RAV glioma xenograft. Put plainly: Tumor regression-regrowth assay, ODA14 RAV xenograft. The format is in vivo, human tumor in immunodeficient mice. To be noted: TMZ 42 mg/kg, x1 cycle.
Source text: as §1, §2, §3, §4

Where [10] appears, read: CDDP 2/12 or VP16/IFO 12/90 mg/kg.

Take `[NH2][Pt]([NH2])([Cl])[Cl]` [CDDP, cisplatin]: the “% Tumor Relapse” value in assay [1] (CDDP 2/12 mg/kg) amounted to 100%. Besides, in [1] (setting [10]), the “% Nodules” value amounted to 23% and the “Median Nodule Apparition Time” value was found to be 13.

Regarding `CCCCCOC(=O)Nc1nc(=O)n([C@@H]2O[C@H](C)[C@@H](O)[C@H]2O)cc1F` [Cap, capecitabine], in [2], the “% Nodules” value was determined as 30%, the “% Tumor Relapse” value was determined as 100%, the “Median Nodule Apparition Time” value is given as 50 and the “Median Time of Relapse” value amounted to 4. In addition, in assay [2], the “T/C % D21” value is recorded as 48%, the “T/C % D42” value came out at 12%, the TGDI is reported as greater than 2.81 and the “median TGD × 5” value is greater than 64 days. Also, in assay [3], the “% Nodules” value is 56%, the “% Tumor Relapse” value was 100%, the “Median Nodule Apparition Time” value was 17 and the “Median Time of Relapse” value was 63. Further, in [3], the “T/C % D21” value is 11%, the TGDI is greater than 4.54 and the “median TGD × 5” value is recorded as greater than 84 days. In addition, in assay [4], the “% Nodules” value is recorded as 100%, the “% Tumor Relapse” value is recorded as 100%, the “Median Nodule Apparition Time” value is listed as 22 and the “Median Time of Relapse” value stood at 36. Besides, in assay [4], the “T/C % D21” value was found to be 5%, the TGDI is recorded as 5.11 and the “median TGD × 5” value was determined as 66.48 days. Further, in assay [5], the “% Nodules” value is given as 33%, the “% Tumor Relapse” value amounted to 100%, the “Median Nodule Apparition Time” value stood at 7 and the “Median Time of Relapse” value worked out at 11. In [5], the “T/C % D21” value was 40%, the TGDI was 1.74 and the “median TGD × 5” value was 27.87 days.

`CC(=O)O[C@@]12CO[C@@H]1C[C@H](O)[C@@]1(C)C(=O)[C@H](O)C3=C(C)[C@@H](OC(=O)[C@H](O)[C@@H](NC(=O)OC(C)(C)C)c4ccccc4)C[C@@](O)([C@@H](OC(=O)c4ccccc4)[C@H]21)C3(C)C` [Doc, docetaxel]: in assay [6], the “% Nodules” value came out at 70%, the “% Tumor Relapse” value was 71.4%, the “Median Nodule Apparition Time” value was 10 and the “Median Time of Relapse” value is 14. For the same molecule, in assay [6], the “T/C % D21” value came to 21%, the TGDI was 2.39 and the “median TGD × 5” value was 35.44 days. In assay [7], the “% Nodules” value was 60%, the “% Tumor Relapse” value is recorded as 100%, the “Median Nodule Apparition Time” value was determined as 11 and the “Median Time of Relapse” value is reported as 9. In [7], the TGDI is reported as greater than 4.8 and the “median TGD × 5” value was greater than 24 days.

For `O=C(c1cc(Cc2n[nH]c(=O)c3ccccc23)ccc1F)N1CCN(C(=O)C2CC2)CC1` [AZD2281], in assay [8], the anti-tumor activity entry is recorded as “significant anti-tumor activity” and the “tumors showing complete tumor regression” value is given as 2 out of 7.

On to `Cn1nnc2c(C(N)=O)ncn2c1=O` [TMZ], for which, in assay [9], the “% Nodules” value was found to be 100%, the “% Tumor Relapse” value was 100%, the “Median Nodule Apparition Time” value is on record as 7 and the “Median Time of Relapse” value is 21. In assay [9], the TGDI stood at 6.66 and the “median TGD × 5” value was determined as 46.62 days.
